In series [1] the test system is human cervical carcinoma (HeLa) cells. Put plainly: (Photo-)cytotoxicity on 2D cell monolayers, HeLa. The series is classed as cell-based. To be noted: for IC50: 1-3 as chloride salts.
Description: (§1) A total of 4 × 10^3 cells were seeded on 96-well plates and allowed to adhere overnight. The cells were treated with increasing concentrations of the sample diluted in cell media achieving a total volume of 200 μL. The cells were incubated with the sample for 8 h and, after this time, the medium refreshed. To study the phototoxic effect of the sample, the cells were exposed to 480 nm (spectral half-width: 20 nm, 10 min, 5.2 mW cm^−2, 3.1 J cm^−2) or 540 nm (spectral half-width: 30 nm, 40 min, 4.0 mW cm^−2, 9.5 J cm^−2) light using an Atlas Photonics LUMOS BIO irradiator. To study the dark cytotoxicity of the sample, the cells were not irradiated and the medium exchanged. The cells were grown for an additional 40 h at 37 °C. After this time, the medium was replaced with fresh medium containing resazurin with a final concentration of 0.2 mg mL^−1. The cells were incubated for 4 h and the amount of the fluorescent product resorufin determined (λex = 540 nm, λem = 590 nm) with a SpectraMax M2 Microplate Reader (Molecular Devices). The obtained data was analyzed with the GraphPad Prism software.
The subject of series [2] is HeLa MCTS. Put plainly: 3D MCTS growth inhibition assay. The series is classed as cell-based, human. Conditions: dark; 1–7 and H2TPP 20 μM, cisplatin 10 μM and 30 μM. The method, then: MCTS were treated with the sample (20 μM 1–7, 20 μM tetraphenylporphyrin H2TPP, 10 μM cisplatin, 30 μM cisplatin, 2% DMSO, v%) by replacing 50% of the media with drug supplemented media in the dark for 3 days. After this time, the MCTS were exposed to a 1-Photon (500 nm, 16.7 min, 10.0 mW cm^−2, and 10 J cm^−2) irradiation using a LED light source or 2-Photon (800 nm, 10 J cm^−2 with a section interval of 5 μm) irradiation using a LSM 880 (Carl Zeiss) laser scanning confocal microscope equipped with a Coherent Chameleon 2-Photon laser. The cell culture media was replaced every 2 days. The integrity and diameter of the MCTs was monitored with an Axio Observer Z1 (Carl Zeiss) phase contrast microscope every 24 h.

Series [3] concerns HeLa MCTS. Put plainly: (Photo-)cytotoxicity on 3D MCTS (ATP concentration). It is filed as cell-based, human. To be noted: 1-3 as chloride salts. The method, then: The cytotoxicity of the compounds in 3D MCTS was assessed by measurement of the ATP concentration. MCTS were treated with increasing concentrations of the compound (2% DMSO, v%) by replacing 50% of the media with drug supplemented media and incubation for 12 h. After this time, the MCTS were divided in three identical groups. The first group was strictly kept in the dark. The second group was exposed to a 1-Photon irradiation (500 nm, 16.7 min, 10.0 mW cm^−2, and 10 J cm^−2) using a LED light source and the third group was exposed to a 2-Photon irradiation (800 nm, 10 J cm^−2 with a section interval of 5 μm) using a LSM 880 (Carl Zeiss, Germany) laser scanning confocal microscope equipped with a Coherent Chameleon 2-Photon laser. After the irradiation, all groups were incubated additional 48 h. The ATP concertation was measured using a CellTiter-Glo 3D Cell Viability kit (Promega) by measuring the generated chemiluminescence with an infinite M200 PRO (Tecan) plate reader.

The test system of series [4] is human glioblastoma astrocytoma (U373) cells. Put plainly: (Photo-)cytotoxicity on 2D cell monolayers, U373.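 Further: Resazurin-to-resorufin fluorescence viability readout, 8 h compound exposure then medium change, light dose 3.1 J cm^−2 at 480 nm or 9.5 J cm^−2 at 540 nm, analysed 40 h later.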
Description: as §1
Series [5] relates to noncancerous retinal pigment epithelium (RPE-1) cells. Description: (Photo-)cytotoxicity on 2D cell monolayers, RPE-1.
Description: as §1
The test system of series [6] is mouse colon carcinoma (CT-26) cells. Description: (Photo-)cytotoxicity on 2D cell monolayers, CT-26.
Details of series [7]: method as in PMID 10907495. Conditions: cited from earlier work.
On the set-up of series [8]: method as in earlier work. To be noted: acetonitrile; cited from earlier work.
A short description of series [9]: Photostability (absorption spectra upon irradiation). It is filed as physicochemical. Conditions: 450 nm, 0 to 10 min (13.2 J cm^−2), air-saturated acetonitrile. The method, then: The sample was prepared in an air-saturated acetonitrile solution. Using a Atlas Photonics LUMOS BIO irradiator, the sample was constantly irradiated at 450 nm in time intervals from 0 to 10 min (13.2 J cm^−2). The absorption spectra from 350 to 700 nm was monitored with a SpectraMax M2 Microplate Reader (Molecular Devices) at each time interval. As positive and negative controls, respectively, [Ru(2,2′-bipyridine)3]Cl2 and Protoporphyrin IX were used.

In series [10] the test system is noncancerous retinal pigment epithelium (RPE-1) cells.
Description: as §1
In series [11] the test system is mouse colon carcinoma (CT-26) cells.
For series [12], the system named is human glioblastoma astrocytoma (U373) cells.
Description: as §1
The mark [13] stands for this setting: Homo sapiens, dark, read-out: IC50 dark.

Where two headings read alike, the source gives them in different places.

For orientation: IC50 means the concentration at which inhibition is half-maximal.

Turning to `N.N.[Cl][Pt][Cl]` [cisplatin, reference compound], the IC50 in series [1] (dark, read-out: IC50 dark) came out at 10.5 µM; in the series with HeLa MCTS [3] (dark, read-out: IC50 dark), 18.6 ± 1.3 µM; in [4] (read-out: IC50 dark, U373, dark, 1-3 as chloride salts) it was 17.6 µM; in series [5] (read-out: IC50 dark, RPE-1, dark, 1-3 as chloride salts), 29.3 µM; in series [6] (read-out: IC50 dark, CT-26, dark, 1-3 as chloride salts) it was 6.5 µM. For the same molecule, the “tumor growth inhibition effect (MCTS volume)” value in the series on HeLa MCTS [2] is “weak effect on the tumor growth”.

`O=C([O-])c1c(Cl)c(Cl)c(Cl)c(Cl)c1-c1c2cc(I)c(=O)c(I)c-2oc2c(I)c([O-])c(I)cc12.[Na+].[Na+]` [Rose Bengal]: the “Φ, singlet oxygen quantum yield of the reference” value in series [7] was 76%.

With `[Cl-].[Cl-].[Ru+2].c1ccc(-c2ccccn2)nc1.c1ccc(-c2ccccn2)nc1.c1ccc(-c2ccccn2)nc1` [[Ru(2,2′-bipyridine)3]Cl2], in series [8], the “Φem, luminescence quantum yield of the reference” value is reported as 5.9%.

In the case of `C=CC1=C(C)c2cc3[nH]c(cc4nc(cc5[nH]c(cc1n2)c(C)c5CCC(=O)O)C(CCC(=O)O)=C4C)c(C)c3C=C` [PpIX, Protoporphyrin IX, reference compound], in [9], the “photostability (change of absorption spectra upon irradiation)” value is “drastically changed”. In addition, the 50% inhibitory concentration (IC50) in series [1] (Homo sapiens, 10 min, 480 nm, read-out: IC50 480 nm (10 min, 3.1 J cm-2)) is 2.5 µM; in series [1] (Homo sapiens, 40 min, 540 nm, read-out: IC50 540 nm (40 min, 9.5 J cm-2)), 2.1 µM; in series [1] (setting [13]), > 100 µM; in series [10], 3.8 µM; in series [11], 3.5 µM; in series [12], 3.6 µM. Moreover, the concentration for half-maximal inhibition (IC50) in series [4] (Homo sapiens, U373 MG, 10 min, read-out: IC50 480 nm (10 min, 3.1 J cm-2)) was 3.3 µM; in series [4] (Homo sapiens, U373 MG, read-out: IC50 dark), > 100 µM; in series [5] (Homo sapiens, RPE-1, 40 min, read-out: IC50 540 nm (40 min, 9.5 J cm-2)) it was 3.3 µM; in series [5] (Homo sapiens, RPE-1, read-out: IC50 dark), > 100 µM; in series [6] (Mus musculus, CT26, 40 min, read-out: IC50 540 nm (40 min, 9.5 J cm-2)), 4.1 µM; in series [6] (Mus musculus, CT26, read-out: IC50 dark) it was > 100 µM. Also, the “PI (480 nm)” value in series [1] (dark vs 480 nm) is > 40.0; in series [4] (U373, dark vs 480 nm), > 30.3; in series [5] (RPE-1, dark vs 480 nm), > 26.3; in series [6] (CT-26, dark vs 480 nm), > 28.6. Besides, the “PI (540 nm)” value in [1] (dark vs 540 nm) is > 47.6; in series [4] (U373, dark vs 540 nm) it was > 27.8; in series [5] (RPE-1, dark vs 540 nm), > 30.3; in [6] (CT-26, dark vs 540 nm), > 24.4.

For `C1=Cc2nc1c(-c1ccccc1)c1nc(c(-c3ccccc3)c3ccc([nH]3)c(-c3ccccc3)c3ccc([nH]3)c2-c2ccccc2)C=C1` [H2TPP, tetraphenylporphyrin, reference compound], in the series on HeLa MCTS [2], the “tumor growth inhibition effect (MCTS volume)” value was “do not show any inhibitory effect”. Besides, the IC50 in the series on HeLa MCTS [3] (setting [13]) was > 100 µM; with HeLa MCTS [3] (Homo sapiens, light or radiation study, 1P 500 nm, read-out: IC50 1P irradiation (500 nm, 10 J cm-2)) it was > 100 µM; in the series on HeLa MCTS [3] (Homo sapiens, light or radiation study, 2P 800 nm, section interval 5 μm, read-out: IC50 2P irradiation (800 nm, 10 J cm-2)), > 100 µM.
